Experimental data as given in ChEMBL document CHEMBL3351459, “Present status of quinoxaline motifs: excellent pathfinders in therapeutic medicine” (Eur J Med Chem, 2014).
In brackets after ≈: the same amount, converted by molar mass.

Tests used:
[1] = test system: Mycobacterium tuberculosis; assay: Antimycobacterial activity against isoniazid-resistant Mycobacterium tuberculosis; assay type: functional
[2] = test system: Mycobacterium tuberculosis; assay: Antimycobacterial activity against rifampicin-resistant Mycobacterium tuberculosis; assay type: functional

CC(=O)c1c(C)[n+]([O-])c2ccc(Cl)cc2[n+]1[O-]
MIC [1]: 1.56 µg/mL (≈ 6.17 µM)
MIC [2]: ≤ 0.39 µg/mL
